# Measured values: patent US8618305B2, “Sorafenib dimethyl sulphoxide solvate” (Ranbaxy Laboratories Limited, priority 2010, dated 2013)
# Like-named read-outs stand apart in the source and are kept apart here.
# Tests used:
# [1] = Hygroscopicity of the solid; type: physicochemical; conditions: free-flowing solid
smiles,measurement,setting,value
"CNC(=O)c1cc(Oc2ccc(NC(=O)Nc3ccc(Cl)c(C(F)(F)F)c3)cc2)ccn1 [Sorafenib dimethyl sulphoxide solvate, dimethyl sulphoxide solvate of 4-(4-{3-[-4-chloro-3-(trifluoromethyl)phenyl]ureido}phenoxy)-N^2-methylpyridine-2-carboxamide]",Change on heating in a vacuum oven,about 120° C. and about 135° C. for about 4 hours,Desolvation of sorafenib dimethyl sulphoxide solvate to sorafenib free base was observed
same,Change on heating in a vacuum oven,"about 4 hours, temperature range of about 45° C. up to 110° C.",No change was observed
same,Temperature up to which the solid is stable towards heating,under reduced pressure,≤ 110 °C
same,Hygroscopicity,[1],non-hygroscopic
